Data reported in patent US11819561B2, “Oral care compositions” (Colgate-Palmolive Company, priority 2020, dated 2023).

Assays:
[1] = tested on: bacteria in saliva; test: Alamar blue test for antimicrobial activity; format: cell-based
Experimental: Antimicrobial activity of the formulations is tested to determine whether the chlorhexidine is fully active. The Alamar blue test for antimicrobial activity is conducted according to standard methodology. Bacteria inoculum is prepared by diluting fresh saliva 2× with deionized water, followed by centrifugation at 8000 G/25° C. for 10 min, and decanting the upper clear liquid into a glass jar. The negative control (A) is distilled water. The positive control (B) is 2 wt. % chlorhexidine gluconate solution. The APG control (C) is a 10 wt. % decyl glucoside solution. The two test solutions are: (D) 2 wt. % chlorhexidine gluconate with 10 wt. % decyl glucoside; and (E) 2 wt. % chlorhexidine gluconate with 10 wt. % decyl glucoside solution, with 14% w/w STPP added. Each of the test solutions is combined with saliva in a weight ratio of 1:10 (solution to saliva). The pH of each mixture is adjusted to 5.5-7 by adding citric acid. The mixtures are vortexed for 1 minute, and incubated at 37° C. for 30 minutes. Subsequent addition of 200 μL of Alamar Blue dye immediately produced blue color in all samples and pictures were taken for comparison at different time intervals (0 hours, 24 hours, 48 hours) to show the evolution of color development. A blue color indicates bacterial kill in saliva and no bacterial growth, while a pink color indicates viable bacteria are still present. […]

[2] = Visual observation of formulation clarity and precipitation; format: physicochemical; conditions: Example 4, other cationic surfactants
Experimental: For the following experiments, a 0.2 wt. % aqueous solution of chlorhexidine gluconate, and a 10.0 wt. % aqueous solution of decyl glucoside (“APG”) are prepared. The pH of the decyl glucoside solution is adjusted to 5.5-7.0 using citric acid. For each formulation, the appropriate amount of the decyl glucoside solution is added to appropriate amounts of the chlorhexidine stock solution. STPP is then added to each formulation, and the mixture is agitated by a bath sonicator until no large solids remained. Additional citric acid is added to adjust the pH to 5.5-7.0. The formulations are then agitated for an additional five minutes, then allowed to equilibrate for 30 minutes before observation and transmittance measurements. For the following experiments, a 0.2 wt. % aqueous solution of chlorhexidine gluconate, and a 2.0 wt. % aqueous solution of CAPB are prepared. STPP is added to the chlorhexidine solution to provide 1.6 wt. % STPP. For each formulation, the appropriate amount of the CAPB solution is added to appropriate amounts of the chlorhexidine/STPP stock solution. The mixture is agitated by a bath sonicator, and then additional citric acid is added to adjust the pH to 6.12-6.19. The formulations are then agitated for an additional five minutes, then allowed to equilibrate for 18 hours before observation. […]

## CCCCCCCCCCO[C@@H]1O[C@H](CO)[C@@H](O)[C@H](O)[C@H]1O [Sample (C) (APG contr), decyl glucoside]
[1]; Example 1 (APG)
  Alamar Blue color change: color change from blue to pink after two days

## benzalkonium chloride
[2]
  Stabilization effect on CHX/STPP: stabilization effect was not observed

## cocamidopropyl betaine [Sample (C) (CAPB contr)]
[1]; Example 2 (CAPB)
  Alamar Blue color change: color change from blue to pink after two days
